Data as given in patent US20130184462A1, “METHOD FOR PREDICTING AND MODELING ANTI-PSYCHOTIC ACTIVITY USING VIRTUAL SCREENING MODEL” (COUNCIL OF SCIENTIFIC & INDUSTRIAL RESEARCH, priority 2010, published 2013).

Tested on: amphetamine induced hyperactivity mice model
Experiment: Amphetamine induced hyperactivity mouse model
Details: in-vitro and in-vivo evaluation, FIGS. 3 and 4
Method: The animals were housed in plastic polypropylene cages under standard animal house conditions with a 12 hours light/dark cycle and temperature of 25±2° C.
The mice randomly grouped in batches of seven animals per group. The basal motor activity (distance traveled) of each mouse was recorded individually using automated activity monitor (TSE, Germany). After basal activity recording, a group of seven animals were challenged with amphetamine [5.5 mg/kg, intra peritoneal (i.p) dissolved in normal saline]. After 30 min. amphetamine injection, motor activity was recorded for individual animal for 5 min.
The difference in motor activity as indicated by distance traveled in animals with amphetamine alone treated and animals with samples plus amphetamine challenge was recorded as inhibition in hyper activity caused by amphetamine and data presented as percent inhibition in amphetamine induced hyperactivity.

SMILES | antipsychotic activity in-vitro and in-vivo
COC(=O)C1C(OC(C)=O)CCC2CN3CCc4c([nH]c5ccccc45)C3CC21 (stereo not drawn) [K001A, 17-O-acetyl α-yohimbine] | potential antipsychotic activity
COC(=O)C1C(OC(=O)c2cccc([N+](=O)[O-])c2)CCC2CN3CCc4c([nH]c5ccccc45)C3CC21 (stereo not drawn) [K001C, 17-O-(3″)-nitrobenzoyl α-yohimbine] | potential antipsychotic activity
COC(=O)C1C(OC(=O)c2ccc([N+](=O)[O-])cc2)CCC2CN3CCc4c([nH]c5ccccc45)C3CC21 (stereo not drawn) [K001E, 17-O-(4″)-nitrobenzoyl-α-yohimbine] | potential antipsychotic activity
COC(=O)C1C(OC(=O)C=Cc2ccccc2)CCC2CN3CCc4c([nH]c5ccccc45)C3CC21 (stereo not drawn) [K001F, 17-O-cinnamoyl α-yohimbine] | potential antipsychotic activity
